Consider 43 compounds from ChEMBL document CHEMBL1201862, “PubChem BioAssay data set” (2004).

Structures are written as SMILES. “And” between values parts separate entries of the source, which are not always exact repeats. Equal values may be shown once. The source made the active and inactive calls. Cut-off read from the data, not from the text of the source, for most assays here: actives have a measured EC50 and inactives only a lower limit.

In experiment [1] the test system is Streptococcus sp. 'group A'. Nature of the experiment: growth inhibition of control SK(-) GAS strain, dose response, counter-screen for streptokinase expression inhibitor project, luminescence, kanamycin, BacTiterGlo, confirmation (AID 1900). It is filed as functional, organism-based. In general terms: A counterscreen serves to expose hits that act by an unwanted route or on another target.

The test system of another experiment is Streptococcus. Put plainly: Group A Streptococcus viability loss, dose response, counter-screen for streptokinase expression inhibitor project, luminescence, BacTiterGlo (AID 1915).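 Note: potency for reduction of bacterial viability or growth.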 It is filed as functional, organism-based.
The target in the next experiment is T1, Streptokinase A (Streptococcus pyogenes serotype M1, UniProt P10520).
T1 sequence (P10520 whole entry): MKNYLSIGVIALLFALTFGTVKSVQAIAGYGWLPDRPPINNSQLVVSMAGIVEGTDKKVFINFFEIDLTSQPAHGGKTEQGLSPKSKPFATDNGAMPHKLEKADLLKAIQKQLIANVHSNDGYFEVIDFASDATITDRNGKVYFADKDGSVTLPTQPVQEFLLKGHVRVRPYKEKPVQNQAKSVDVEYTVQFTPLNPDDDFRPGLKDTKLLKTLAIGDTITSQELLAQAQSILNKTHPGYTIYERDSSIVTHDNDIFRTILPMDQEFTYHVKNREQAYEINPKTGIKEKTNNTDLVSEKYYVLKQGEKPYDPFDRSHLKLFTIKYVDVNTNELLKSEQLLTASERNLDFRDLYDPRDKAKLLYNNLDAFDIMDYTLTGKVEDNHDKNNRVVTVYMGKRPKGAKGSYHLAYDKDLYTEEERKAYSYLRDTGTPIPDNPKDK
Put plainly: S. pyogenes streptokinase expression inhibitors, potency, dose response, plasminogen activation absorbance, OD405 (AID 1914).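 Note: secreted streptokinase activity via plasminogen activation per viability signal from cell pellet.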 Type of experiment: functional, Streptococcus pyogenes M1 GAS.

Another experiment addresses Cytochrome P450 3A4 (Homo sapiens, UniProt P08684).
Another experiment deals with Cytochrome P450 2C9 (Homo sapiens, UniProt P11712).
Chain of Cytochrome P450 2C9 (P11712 whole entry): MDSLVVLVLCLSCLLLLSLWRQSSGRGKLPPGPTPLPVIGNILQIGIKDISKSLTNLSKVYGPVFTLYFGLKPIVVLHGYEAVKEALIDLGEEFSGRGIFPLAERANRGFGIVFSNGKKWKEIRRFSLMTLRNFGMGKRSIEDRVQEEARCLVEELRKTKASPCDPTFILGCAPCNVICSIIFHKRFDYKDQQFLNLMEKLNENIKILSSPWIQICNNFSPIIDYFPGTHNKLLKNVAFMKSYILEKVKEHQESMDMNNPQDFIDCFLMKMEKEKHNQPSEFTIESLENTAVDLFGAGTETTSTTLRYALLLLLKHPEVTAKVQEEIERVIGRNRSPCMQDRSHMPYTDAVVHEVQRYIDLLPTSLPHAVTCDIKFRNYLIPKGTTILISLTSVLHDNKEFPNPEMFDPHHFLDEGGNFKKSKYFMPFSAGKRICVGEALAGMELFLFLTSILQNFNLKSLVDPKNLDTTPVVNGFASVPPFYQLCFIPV
Experiment [2] addresses T2, Corticotropin-releasing factor receptor 2/Corticotropin-releasing factor-binding protein (Homo sapiens, UniProt P24387+Q13324).
T2 sequence (Q13324 whole entry): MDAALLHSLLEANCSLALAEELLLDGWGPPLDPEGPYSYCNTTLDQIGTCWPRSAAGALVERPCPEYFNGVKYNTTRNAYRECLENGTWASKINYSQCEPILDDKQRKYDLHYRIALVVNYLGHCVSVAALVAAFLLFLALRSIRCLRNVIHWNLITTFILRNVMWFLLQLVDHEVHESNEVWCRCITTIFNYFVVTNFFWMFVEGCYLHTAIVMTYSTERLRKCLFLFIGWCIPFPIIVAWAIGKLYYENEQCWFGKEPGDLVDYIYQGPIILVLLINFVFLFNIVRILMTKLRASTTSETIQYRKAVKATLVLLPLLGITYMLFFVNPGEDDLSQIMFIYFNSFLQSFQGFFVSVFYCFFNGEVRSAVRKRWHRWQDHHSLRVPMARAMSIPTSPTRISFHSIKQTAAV
T2 sequence (P24387 whole entry): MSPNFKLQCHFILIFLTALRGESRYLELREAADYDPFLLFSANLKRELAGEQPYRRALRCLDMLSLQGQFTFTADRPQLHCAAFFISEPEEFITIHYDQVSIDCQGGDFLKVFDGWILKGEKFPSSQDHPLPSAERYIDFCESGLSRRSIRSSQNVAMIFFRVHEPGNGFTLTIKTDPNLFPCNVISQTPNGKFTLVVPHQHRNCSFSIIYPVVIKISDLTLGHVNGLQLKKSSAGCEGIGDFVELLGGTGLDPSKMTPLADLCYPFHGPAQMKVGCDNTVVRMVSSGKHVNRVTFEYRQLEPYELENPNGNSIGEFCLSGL
Nature of the experiment: activators of CRF receptor 2 with binding protein – uHTS hits, confirmation (AID 602473). The following applies: read-out: EC50_Mean. It is filed as functional.

The nature of experiment [3]: inhibitors of intracellular T. cruzi replication, confirmation, NIH3T3 host cells, beta-gal luminescence (AID 2044).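 Note: intracellular parasites grown in NIH/3T3 mouse fibroblasts as host cells; luminescent beta-galactosidase reporter signal from transgenic T. cruzi replicating inside host cells; inhibitors lower the luminescence signal.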 Type of experiment: functional, cell-based.
The nature of experiment [4]: cytotoxicity toward NIH3T3 fibroblasts, dose response, counter-screen, cell-based, ATP luminescence, mouse fibroblasts (AID 2010).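 Note: cells exposed to compound for about 90 hours before reading.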 Type of experiment: functional.

Chain of Cytochrome P450 3A4 (P08684 whole entry): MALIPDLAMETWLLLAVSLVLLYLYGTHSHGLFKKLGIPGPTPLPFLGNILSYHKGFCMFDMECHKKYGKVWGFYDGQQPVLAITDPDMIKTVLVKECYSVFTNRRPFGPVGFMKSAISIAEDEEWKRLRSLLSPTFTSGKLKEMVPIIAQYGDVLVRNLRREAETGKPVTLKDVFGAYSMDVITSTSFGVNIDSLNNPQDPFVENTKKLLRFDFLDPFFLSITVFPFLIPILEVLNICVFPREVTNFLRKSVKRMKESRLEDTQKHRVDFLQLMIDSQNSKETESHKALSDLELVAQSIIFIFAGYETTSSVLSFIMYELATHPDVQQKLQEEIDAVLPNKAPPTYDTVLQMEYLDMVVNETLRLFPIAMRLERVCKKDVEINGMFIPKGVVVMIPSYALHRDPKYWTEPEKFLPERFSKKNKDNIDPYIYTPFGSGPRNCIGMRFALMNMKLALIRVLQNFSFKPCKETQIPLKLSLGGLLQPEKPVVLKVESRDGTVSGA

Consider `N#Cc1c(O)nc(SCc2ccc(Cl)cc2)nc1-c1ccccc1`, for which the values for the EC50 (in experiment [1]; in the experiment with Streptococcus) were 11.4 µM (active) and 14.1 µM (active), respectively.
With `COc1ccc(-c2noc(-c3ccccc3-c3ccccc3)n2)cc1`, the figures for the EC50 (in experiment [1]; at Streptokinase A; with Streptococcus) were 32.9 µM (active), 17.8 µM (active) and > 150 µM (not active), respectively.
Take `Cc1sc(N)c(C(=O)c2cccc(C(F)(F)F)c2)c1C`: the AC50 (as a rule, the concentration at which the activity in the assay is half-maximal) on Cytochrome P450 3A4 was 12.6 µM (inconclusive).
`O=C(NCCN1CCCCC1)c1ccc(I)cc1`: on Cytochrome P450 2C9, the half-maximal activity concentration (AC50) was 31.6 µM (inconclusive).
Consider `C=CCNCCOCCOc1ccc(C)cc1[N+](=O)[O-]`, for which, at Cytochrome P450 3A4, the AC50 is 12.6 µM (inconclusive).
For the compound `Cc1cc(NC(=O)CN2C(=O)c3ccccc3C2=O)no1`, the EC50 (in experiment [1]; on Streptokinase A; with Streptococcus) was > 150 µM (not active) each time.
For `CCOC(=O)CC1C(=O)NCCN1S(=O)(=O)c1ccc(Cl)c(Cl)c1` (centres undefined), the AC50 at Cytochrome P450 3A4 was 12.6 µM (inconclusive).
On to `O=C(COc1c(Cl)cccc1Cl)Nc1ccccc1N1CCCC1`, for which the EC50 was 16.4 µM (active) in experiment [1], 16.1 µM (active) at Streptokinase A and > 150 µM (not active) in the experiment with Streptococcus.
As to `O=C(Cc1ccccc1)NN1C(=O)/C(=C/c2c[nH]c3ccccc23)SC1=S`, the EC50 in experiment [1] is 20.4 µM (active); on Streptokinase A it was > 150 µM (not active); in the experiment on Streptococcus it was > 150 µM (not active).
As for `Cc1cc(/C=C2\SC(=S)NC2=O)c(C)n1-c1cccc(O)c1`, the values for the EC50 (in experiment [1]; with Streptococcus) were 6.9 µM (active) and 49.7 µM (inconclusive), respectively.
As for `CCOC(=O)Cn1cc(C=C2C(=O)N(C)C(=O)N(C)C2=O)c2ccccc21`, in experiment [2], the EC50 is 5.34 µM (active).
`O=c1c(-c2cc(F)cc(F)c2)nc2cnc(Oc3ccccc3)nc2n1C[C@H]1CCCO1`: on Cytochrome P450 3A4, the half-maximal activity concentration (AC50) was 15.8 µM (inconclusive).
`Nc1c2c(nc3ccccc13)CSCC2`: the EC50 in experiment [3] was 3.33 µM (active); in experiment [4] it was > 30 µM (not active).
As for `Cc1cc(C(F)(F)F)c(C#N)c(SCC(=O)Nc2nc3cc(Br)ccc3s2)n1`, the results for the EC50 (in experiment [1]; at Streptokinase A; in the experiment with Streptococcus) were 3.48 µM (active), 17.5 µM (active) and > 150 µM (not active), respectively.
As to `Oc1ccc2ccccc2c1CN1CCCCC1`, in experiment [2], the EC50 is 3.84 µM (active).
In the case of `C#CCCCO/N=C1/C[C@@H](O)[C@@H](O)[C@@H]2[C@@H]3C(=O)N(C[C@@H]4CCCO4)C(=O)[C@H]3CC[C@@H]12`, at Cytochrome P450 3A4, the concentration at half-maximal activity (AC50) was 3.98 µM (inconclusive).
As for `C[C@H](NC(=O)c1ccc(Cl)c(Cl)c1)c1ccc(-c2ccccc2)cc1`, the AC50 at Cytochrome P450 2C9 is 3.16 µM (inconclusive).
As to `Cc1ccc(S(=O)(=O)Nc2cc(C)c(O)c(S(=O)(=O)c3ccc(C)cc3)c2)cc1`, the EC50 was 39.6 µM (active) in experiment [1], > 150 µM (not active) on Streptokinase A and > 150 µM (not active) in the experiment with Streptococcus.
Take `N#Cc1c(-c2ccccc2)nc(SCc2ccc(Cl)cc2)[nH]c1=O`: the EC50 at Streptokinase A was 5.41 µM (active).
With `CC(C)(C)c1cccc(Oc2nn[nH]n2)c1`, the figures for the AC50 at Cytochrome P450 3A4 and on Cytochrome P450 2C9 were 22.4 µM (inconclusive) and 25.1 µM (inconclusive), respectively.
With `O=C(c1cccs1)N1N=C(c2ccccc2)CC1c1ccccc1O` (centres undefined), the EC50 in experiment [3] is 2.84 µM (active); in experiment [4], > 60 µM (not active).
The like results for `O=C(/C=C/c1ccc([N+](=O)[O-])cc1)Oc1ccc(/C=N/NC(=O)c2ccncc2)cc1` were, in that order, 9.25 µM (active) and > 60 µM (not active).
Take `CCN(CC)C(=O)c1cnc2ccc(S(=O)(=O)Nc3cc(C)cc(C)c3)cc2c1O`: in experiment [2], the EC50 was 4.85 µM (active).
For the compound `O=c1c2ccc([N+](=O)[O-])cc2ncn1CCOc1cccc(Br)c1`, the EC50 in experiment [3] is 0.212 µM (active); in experiment [4], > 60 µM (not active).
The corresponding values for `O=C(c1cc(-c2ccncc2)nc2ccccc12)N1CCN(c2ccccn2)CC1` are 1.1 µM (active) and 10 µM (active).
On to `C=CCn1c(NCc2cc(Cl)ccc2O)nc2ccccc21`, for which the EC50 (in experiment [1]; on Streptokinase A; in the experiment with Streptococcus) was > 150 µM (not active) each time.
Take `C=CCSc1nc2ccccc2c(=O)n1Cc1ccccc1`: the EC50 is 15.7 µM (active) in experiment [1], > 150 µM (not active) at Streptokinase A and 99.4 µM (active) in the experiment with Streptococcus.
For `Cc1ccc(C)c(NC(=O)NCc2ccc(Cl)cc2)c1`, the AC50 on Cytochrome P450 3A4 is 2.51 µM (inconclusive).
For `Nc1c(C(=O)NCc2ccccc2)sc2nc3c(cc12)C(=O)CCC3`, the AC50 was 25.1 µM (inconclusive) at Cytochrome P450 3A4 and 1.41 µM (inconclusive) on Cytochrome P450 2C9.
Take `NC(=S)N/N=C/c1ccc2ccccc2c1`: the results for the EC50 in experiment [3] and in experiment [4] were 0.858 µM (active) and > 60 µM (not active), respectively.
As to `CCc1ccc(NC(S)=NC2CC3CCCC(C2)N3Cc2cccs2)cc1` (centres undefined), the EC50 in experiment [3] was 5.85 µM (active); in experiment [4] it was > 60 µM (not active).
As for `CC(Nc1nc(-c2ccccc2O)nc2ccccc12)c1ccccc1` (centres undefined), the EC50 in experiment [1] is 9.99 µM (active); at Streptokinase A, 8.55 µM (active); in the experiment on Streptococcus it was > 150 µM (not active).
`COc1ccc(-c2ccc3c(n2)CCCN3C[C@H](O)CN2CCCc3nc(-c4ccc(Br)cc4)ccc32)cc1`: the AC50 on Cytochrome P450 2C9 was 3.98 µM (inconclusive) and 3.16 µM (inconclusive).
As to `CCC(C)NCCOCCOc1ccc(F)cc1` (centres undefined), the results for the EC50 in experiment [3] and in experiment [4] were 0.806 µM (active) and 10.7 µM (active), respectively.
For `CN1CCN(c2ccncc2S(=O)(=O)N2CCN(C)CC2)CC1`, the half-maximal activity concentration (AC50) at Cytochrome P450 3A4 was 3.16 µM (inconclusive).
On the same count and under the same terms, the figure for `Fc1ccc(-c2[nH]ncc2-c2nnnn2-c2ccccc2)c(F)c1` is 10 µM (inconclusive).
On to `NC(=O)NC(=O)CSc1nc2sc(-c3ccccc3)cc2c(=O)n1-c1ccccc1`, for which the EC50 in experiment [1] is 2.21 µM (active); in the experiment with Streptococcus, 4.54 µM (active).
Consider `CC(C)Sc1cc(N2CCCC2)nc(-c2ccc(F)cc2)n1`, for which the EC50 in experiment [1] is 6.81 µM (active); at Streptokinase A, 10.9 µM (active); in the experiment on Streptococcus it was 23.8 µM (active). Further, the AC50 was 17.8 µM (inconclusive) at Cytochrome P450 3A4 and 7.94 µM (inconclusive) on Cytochrome P450 2C9.
`Cc1ccc2c(CC(=O)Nc3sccc3C(N)=O)coc2c1`: in experiment [2], the EC50 was > 53 µM (inactive).
For `CO[C@@H]1COC(=O)C/C=C\[C@@H](C)[C@@H]2C=C[C@H](O)[C@@H](COC(=O)CCC[C@H]1C)O2`, the AC50 at Cytochrome P450 3A4 is 3.98 µM (inconclusive).
As for `C=CCn1c(=O)c(C(=O)NCCN(CC)CC)c(O)c2ccccc21`, the AC50 on Cytochrome P450 2C9 was 8.91 µM (inconclusive).
Same read-out and setting: the figure for `CC(C)Oc1ccc2c(=O)c3cc(C(=O)O)ccc3oc2c1` is 31.6 µM (inconclusive).
In the case of `CN1CCC(N(C)CC(=O)Nc2cccc(Oc3ccccc3)c2)CC1`, the EC50 in experiment [3] was < 0.1 µM (active); in experiment [4] it was > 60 µM (not active).
